Measured values reported in US8058295B2, “Cystic fibrosis transmembrane conductance regulator protein inhibitors and uses thereof” (The Regents of the University of California, priority 2002, dated 2011).
“Also recorded” adds a separate entry of the source. Read-outs that look alike come from different tables or passages of the source.

Legend:
CFTR [1] = target: CFTR (Homo sapiens, UniProt P13569)
[2] = tested on: cholera toxin-induced intestinal fluid secretion; set-up: species or system mice; conditions: mouse, in vivo, ip
wildtype CFTR = wildtype CFTR (Homo sapiens, UniProt P13569); assay: YFP fluorescence assay of CFTR-mediated I^− transport in FRT cells; type: cell-based; set-up: expressed in transfected cells; host or cells: Fischer rat thyroid (FRT) cells
[3] = Pharmacokinetic and oral bioavailability studies in mice; type: in vivo
Protocol: For comparison other mice were given ^14C-CFTRinh-172 (2 μCi) intravenously by tail vein infusion. Blood was collected from the tail vein at specified times for measurement of plasma ^14C radioactivity. At 6 hours mice were killed by pentobarbital overdose and organs were removed for measurement of radioactivity in homogenates.

[4] = Pharmacokinetic analysis in rats after intravenous bolus; type: in vivo
Protocol: A bolus of ^14C-CFTRinh-172 (50 μCi) in PBS containing 3% DMSO (titrated to pH 7.4 using NaOH) was administered intravenously in rats over 1 min (male Sprague-Dawley rats, 360-420 grams) by an indwelling jugular catheter. Blood was collected from the catheter at specified times. ^14C-Radioactivity was determined in plasma (isolated by centrifugation of whole blood at 14,000 g for 10 min) by scintillation counting (Scintiverse SE, Fisher, Calif.) using a LS-6500 Multi-Purpose Scintillation Counter (Beckman). Pharmacokinetic analysis was done using WinNonLin software (Pharsight). Rats were sacrificed by pentobarbital overdose after collection of the final blood/tissue samples. All animal procedures were approved by the UCSF Committee on Animal Research.

Animal toxicity in mice = type: in vivo
water channel (AQP1) = target: T1, water channel (AQP1) (Homo sapiens, UniProt P29972); assay: Water channel block; conditions: 5 μM
T1 sequence (P29972 1-269): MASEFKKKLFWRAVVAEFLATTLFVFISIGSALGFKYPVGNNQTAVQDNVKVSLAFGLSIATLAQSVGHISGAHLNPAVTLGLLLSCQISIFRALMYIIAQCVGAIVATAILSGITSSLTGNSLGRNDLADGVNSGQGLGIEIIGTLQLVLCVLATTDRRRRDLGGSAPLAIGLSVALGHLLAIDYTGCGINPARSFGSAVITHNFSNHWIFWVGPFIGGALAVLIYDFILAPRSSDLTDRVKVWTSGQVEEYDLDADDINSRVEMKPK

[5] = tested on: cholera toxin-induced fluid secretion; set-up: species or system mice; conditions: mouse, in vivo, po
cellular cAMP production = assay: Intracellular cAMP assay in FRT cells; type: cell-based, rat
[6] = tested on: cholera toxin-induced intestinal fluid secretion; set-up: species or system mice; conditions: mouse, in vivo, po
[7] = target: T2, Cl^−/HCO3^− exchanger (AE1) (Homo sapiens, UniProt P02730); assay: Cl^−/HCO3^− exchanger block; conditions: 5 μM
T2 sequence (P02730 1-911): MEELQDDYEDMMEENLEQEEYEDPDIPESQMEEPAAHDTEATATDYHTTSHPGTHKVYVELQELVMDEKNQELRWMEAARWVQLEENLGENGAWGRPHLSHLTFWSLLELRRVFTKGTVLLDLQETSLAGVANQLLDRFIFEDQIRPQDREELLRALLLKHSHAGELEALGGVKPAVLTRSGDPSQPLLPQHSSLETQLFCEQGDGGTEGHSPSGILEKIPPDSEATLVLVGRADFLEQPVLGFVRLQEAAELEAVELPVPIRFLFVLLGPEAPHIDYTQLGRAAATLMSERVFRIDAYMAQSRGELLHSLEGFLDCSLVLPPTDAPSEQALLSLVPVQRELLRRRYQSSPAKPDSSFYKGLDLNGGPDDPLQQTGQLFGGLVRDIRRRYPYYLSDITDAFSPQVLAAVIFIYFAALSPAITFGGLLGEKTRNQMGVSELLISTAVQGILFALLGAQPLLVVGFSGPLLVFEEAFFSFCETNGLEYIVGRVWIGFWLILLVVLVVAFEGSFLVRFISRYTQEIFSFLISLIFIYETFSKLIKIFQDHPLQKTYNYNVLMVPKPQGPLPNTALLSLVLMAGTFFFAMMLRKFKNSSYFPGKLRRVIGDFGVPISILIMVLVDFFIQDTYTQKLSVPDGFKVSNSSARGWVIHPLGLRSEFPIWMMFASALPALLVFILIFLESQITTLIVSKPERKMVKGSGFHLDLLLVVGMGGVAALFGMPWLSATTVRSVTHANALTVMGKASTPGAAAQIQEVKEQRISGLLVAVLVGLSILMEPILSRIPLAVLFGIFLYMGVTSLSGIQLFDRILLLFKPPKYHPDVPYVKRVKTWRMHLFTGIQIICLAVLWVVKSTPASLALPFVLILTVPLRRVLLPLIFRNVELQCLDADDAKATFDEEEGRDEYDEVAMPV

CFTR [8] = target: T3, CFTR (Mus musculus, UniProt P26361); assay: Short-circuit current in mouse ileum
T3 construct: from tissue; host or cells: mouse ileum (wildtype CD1 mice)

phosphatase activity = assay: Phosphatase assay; type: cell-based; conditions: 5 μM
[9] = rat, i.v. bolus, 2-compartment model
[10] = intraperitoneal 1000 μg/kg daily for 7 days

Sequence of wildtype CFTR (P13569 whole entry): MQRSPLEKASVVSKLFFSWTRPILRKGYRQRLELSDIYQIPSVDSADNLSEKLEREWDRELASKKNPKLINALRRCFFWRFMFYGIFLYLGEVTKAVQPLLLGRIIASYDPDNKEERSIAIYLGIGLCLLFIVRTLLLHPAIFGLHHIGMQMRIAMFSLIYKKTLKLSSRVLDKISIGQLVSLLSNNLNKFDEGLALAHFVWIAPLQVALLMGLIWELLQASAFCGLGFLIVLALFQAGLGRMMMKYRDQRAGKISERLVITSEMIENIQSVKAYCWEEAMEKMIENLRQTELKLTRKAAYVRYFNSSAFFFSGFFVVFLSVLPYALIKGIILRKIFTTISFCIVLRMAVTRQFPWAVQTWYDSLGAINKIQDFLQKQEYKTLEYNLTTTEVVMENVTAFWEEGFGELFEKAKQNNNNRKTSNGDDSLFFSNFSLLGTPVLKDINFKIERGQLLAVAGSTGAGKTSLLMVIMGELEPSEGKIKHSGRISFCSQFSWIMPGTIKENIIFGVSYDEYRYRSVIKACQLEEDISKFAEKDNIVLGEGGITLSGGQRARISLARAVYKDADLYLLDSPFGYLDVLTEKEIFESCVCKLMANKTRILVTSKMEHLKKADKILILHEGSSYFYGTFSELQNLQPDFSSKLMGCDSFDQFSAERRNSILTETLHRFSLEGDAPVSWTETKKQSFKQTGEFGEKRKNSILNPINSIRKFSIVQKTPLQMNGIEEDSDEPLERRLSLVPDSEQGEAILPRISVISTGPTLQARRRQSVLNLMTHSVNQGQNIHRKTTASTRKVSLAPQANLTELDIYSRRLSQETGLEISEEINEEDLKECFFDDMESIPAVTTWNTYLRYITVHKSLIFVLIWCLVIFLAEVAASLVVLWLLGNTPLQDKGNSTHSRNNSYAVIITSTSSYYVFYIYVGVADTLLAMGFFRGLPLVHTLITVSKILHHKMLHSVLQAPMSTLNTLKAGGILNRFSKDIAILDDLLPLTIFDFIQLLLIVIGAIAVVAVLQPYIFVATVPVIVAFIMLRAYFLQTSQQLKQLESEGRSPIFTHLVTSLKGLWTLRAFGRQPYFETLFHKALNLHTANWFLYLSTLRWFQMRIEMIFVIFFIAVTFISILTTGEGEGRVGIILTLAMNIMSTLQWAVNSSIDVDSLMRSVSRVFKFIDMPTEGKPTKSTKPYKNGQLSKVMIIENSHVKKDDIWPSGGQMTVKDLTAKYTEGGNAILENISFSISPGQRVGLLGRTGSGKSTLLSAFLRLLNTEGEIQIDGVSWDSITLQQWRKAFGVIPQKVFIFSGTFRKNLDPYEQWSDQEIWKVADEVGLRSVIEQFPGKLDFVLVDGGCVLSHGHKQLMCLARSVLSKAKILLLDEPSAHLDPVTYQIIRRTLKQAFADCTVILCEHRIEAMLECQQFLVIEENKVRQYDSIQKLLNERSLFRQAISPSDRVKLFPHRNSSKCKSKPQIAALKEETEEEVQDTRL
Sequence of CFTR (Homo sapiens, UniProt P13569) (P13569 whole entry): as above
T3 sequence (P26361 whole entry): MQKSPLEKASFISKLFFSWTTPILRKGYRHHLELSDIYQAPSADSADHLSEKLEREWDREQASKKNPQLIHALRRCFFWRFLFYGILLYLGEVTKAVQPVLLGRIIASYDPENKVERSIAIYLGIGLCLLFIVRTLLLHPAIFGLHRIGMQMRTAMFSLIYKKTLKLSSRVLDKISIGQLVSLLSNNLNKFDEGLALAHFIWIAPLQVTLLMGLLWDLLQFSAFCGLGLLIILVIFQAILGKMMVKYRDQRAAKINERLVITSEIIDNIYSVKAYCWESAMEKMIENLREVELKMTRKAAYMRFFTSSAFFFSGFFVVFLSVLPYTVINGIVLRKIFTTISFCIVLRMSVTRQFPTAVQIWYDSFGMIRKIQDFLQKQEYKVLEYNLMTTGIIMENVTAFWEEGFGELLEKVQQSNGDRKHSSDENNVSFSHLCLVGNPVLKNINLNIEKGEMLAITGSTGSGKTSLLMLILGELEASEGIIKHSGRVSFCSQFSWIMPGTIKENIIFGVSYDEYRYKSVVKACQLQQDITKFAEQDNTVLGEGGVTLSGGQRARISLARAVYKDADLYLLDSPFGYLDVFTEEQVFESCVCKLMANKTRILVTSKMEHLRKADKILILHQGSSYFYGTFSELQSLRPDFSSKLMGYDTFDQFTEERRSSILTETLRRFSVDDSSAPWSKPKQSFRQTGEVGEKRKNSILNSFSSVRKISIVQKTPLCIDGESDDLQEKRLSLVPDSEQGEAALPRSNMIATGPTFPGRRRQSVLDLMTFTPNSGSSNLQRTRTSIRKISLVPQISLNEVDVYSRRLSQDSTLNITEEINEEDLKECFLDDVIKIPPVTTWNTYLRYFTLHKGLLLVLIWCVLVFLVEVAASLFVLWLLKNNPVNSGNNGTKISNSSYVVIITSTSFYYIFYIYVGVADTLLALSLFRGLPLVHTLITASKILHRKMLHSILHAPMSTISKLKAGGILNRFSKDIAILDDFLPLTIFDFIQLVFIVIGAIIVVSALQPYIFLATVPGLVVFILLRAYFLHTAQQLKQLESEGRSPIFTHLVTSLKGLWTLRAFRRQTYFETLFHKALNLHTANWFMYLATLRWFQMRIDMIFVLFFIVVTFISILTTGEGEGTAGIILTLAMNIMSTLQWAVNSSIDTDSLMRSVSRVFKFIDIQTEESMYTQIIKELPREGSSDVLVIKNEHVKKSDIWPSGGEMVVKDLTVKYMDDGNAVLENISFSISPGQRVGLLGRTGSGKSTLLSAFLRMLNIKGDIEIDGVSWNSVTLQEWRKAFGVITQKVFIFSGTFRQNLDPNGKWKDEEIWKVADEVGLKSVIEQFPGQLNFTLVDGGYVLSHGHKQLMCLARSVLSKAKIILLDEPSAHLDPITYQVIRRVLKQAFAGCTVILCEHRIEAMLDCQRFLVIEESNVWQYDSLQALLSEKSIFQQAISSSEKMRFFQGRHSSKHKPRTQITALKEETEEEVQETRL

O=C(O)c1ccc(/C=C2\SC(=S)N(c3cccc(C(F)(F)F)c3)C2=O)cc1 [CFTRinh-172, 3-[(3-trifluoromethyl)phenyl]-5-[(4-carboxyphenyl)methylene]-2-thioxo-4-thiazolidinone]
effect on membrane current (CFTR [1]; 2 μM extracellular perfusion, after 5 μM forskolin): rapid reduction in current at all membrane potentials | inhibition at 0.2 µM (CFTR [1]; FRT, read-out: inhibition of membrane current): ~50% | fluid accumulation in cholera toxin-treated loops [2]: effectively prevented fluid accumulation; also recorded: significantly reduced fluid secretion to that in saline control loops | inhibition of fluid accumulation in cholera toxin-injected loops [2]: ~90% | inhibition of luminal fluid accumulation [2]: significant inhibition of luminal fluid accumulation; also recorded: much less inhibition | t1/2 for persistence of inhibition [2]: 540 to 600 min | inhibition of CFTR activation by other agonists (wildtype CFTR; 5 μM inhibitor, genistein, CPT-cAMP, CPX, 8-MPO, UCCF-029, UCCF-853 (all 50 μM)): effectively inhibited | t1/2 of inhibition (wildtype CFTR; after addition of 2 μM): 4 min | time to complete inhibition (wildtype CFTR; after addition of 2 μM): ~10 min | t1/2 of inhibition reversal after washout (wildtype CFTR; washout of 1 μM): ~5 min | organ distribution ([3]; 6 hr after oral and intravenous administration): accumulation in the gastrointestinal tract as well as the liver and kidney | oral bioavailability ([3]; TPGS preparation, oral vs. intravenous tissue/serum content at 4-6 hr): 15-20% | time over which high initial serum concentrations decreased (tissue redistribution) ([3]; mice, intravenous): ~30 min | time of peak serum radioactivity ([3]; mice, oral administration in TPGS): 60 to 90 min | concentration of ^14C radioactivity in bile vs. serum ([3]; mouse, in vivo): ~10 fold | radioactivity excreted in the stool ([3]; over 24 hr): < 10 % of total excreted radioactivity | detection in plasma ([4]; 72 hr after administration): No ^14C-labeled CFTRinh-172 was detected | detection in liver or kidney homogenates ([4]; 14 days after administration): No ^14C-labeled CFTRinh-172 was detected | area under curve (AUC) [4, 9]: 3800 ng·h/mL | clearance [4, 9]: 99 mL/h | elimination half-time [4, 9]: 10.3 h | maximum serum concentration [4, 9]: 3.2 µg/mL | redistribution half-time [4, 9]: 0.14 h | volume of distribution [4, 9]: 1.2 L | food and water intake (Animal toxicity in mice; [10]): not diminished | overt toxicity (Animal toxicity in mice; [10]): did not cause overt toxicity | serum electrolyte concentrations, glucose, liver function indices, serum creatinine, amylase and hematocrit (Animal toxicity in mice; [10]): not changed | overt toxicity (Animal toxicity in mice; single systemic dose 10 mg/kg): did not cause overt toxicity | block of water channel (AQP1) (water channel (AQP1)): did not block | cholera toxin-induced fluid secretion [5]: Inhibition of cholera toxin-induced fluid secretion | effect on cellular cAMP production (cellular cAMP production; 5 μM): did not affect | cAMP content (cellular cAMP production; 30 min after 20 μM forskolin, + inhibitor (n=3)): 1140±50 fmol/well | intestinal fluid accumulation (ratio of intestinal weight before vs. after luminal fluid removal) [6]: remarkably reduced intestinal fluid accumulation | block of Cl^−/HCO3^− exchanger (AE1) [7]: did not block | IC50 (CFTR [8]; forskolin (cAMP-dependent chloride secretion), read-out: concentration for fifty percent inhibition of short-circuit current): ~5 µM | IC50 (CFTR [8]; intact intestine, read-out: apparent potency for inhibition of intestinal short-circuit current): 2 to 5 µM | effect on phosphatase activity (phosphatase activity): did not affect
